In patent US20040087561A1, “Treatment of sexual dysfunction” (priority 2000, published 2004):

Tests used:
[1] = test system: Male New Zealand rabbits; experiment: Pelvic nerve-stimulated penile intracavernosal pressure, anaesthetised rabbit model of erection; type: in vivo; details: Compound 3 (10 mg/kg sc) concomitant with selective PDE5 inhibitor (1 mg/kg iv), compared with same dose of Compound 3 alone
Protocol: (§1) Male New Zealand rabbits (˜2.5 kg) were pre-medicated with a combination of Medetomidine (Domitor®) 0.5 ml/kg i.m., and Ketamine (Vetalar®) 0.25 ml/kg i.m. whilst maintaining oxygen intake via a face mask. The rabbits were tracheotomised using a Portex™ uncuffed endotracheal tube 3 ID., connected to ventilator and maintained at a ventilation rate of 30-40 breaths per minute, with an approximate tidal volume of 18-20 ml, and a maximum airway pressure of 10 cm H2O. Anaesthesia was then switched to Isoflurane and ventilation continued with O2 at 2 l/min. The right marginal ear vein was cannulated using a 23G or 24G catheter, and Lactated Ringer solution perfused at 0.5 ml/min. The rabbit was maintained at 3% Isoflurane during invasive surgery, dropping to 2% for maintenance anaesthesia. The left jugular vein was exposed, isolated and then cannulated with a PVC catheter (17G) for the infusion of drugs and compounds.
The left groin area of the rabbit was shaved and a vertical incision was made approximately 5 cm in length along the thigh. […] Systolic and diastolic pressures were measured, and the mean arterial pressure calculated using the formula (diastolic ×2+systolic)[…]. Heart rate was measured via the pulse oxymeter and Po-ne-mah data acquisition software system (Ponemah Physiology Platform, Gould Instrument Systems Inc). […]

[2] = test system: Female New Zealand rabbits; experiment: Pelvic nerve-stimulated female genital blood flow, anaesthetised rabbit model of sexual arousal; type: in vivo; details: 15 mg/kg sc
Protocol: as §1, with “Female” for “Male”, “(2.5” for “(˜2.5”, “im.,” for “i.m.,”, “anaesthesia.” for “anaesthesia. The left jugular vein was exposed, isolated and then cannulated with a PVC catheter (17G) for the infusion of drugs and compounds.”
The left groin area of the rabbit was shaved and a vertical incision was made approximately 5 cm in length along the thigh. […] Systolic and diastolic pressures were measured, and the mean arterial pressure calculated using the formula (diastolic ×2+systolic)÷3. Heart rate was measured via the pulse oxymeter and Po-ne-mah data acquisition software system (Ponemah Physiology Platform, Gould Instrument Systems Inc). […] A frequency response curve was determined at the start of each experiment in order to determine the optimum frequency to use as a sub-maximal response, normally 4 Hz. […]

[3] = test system: conscious male rat; experiment: Penile intracavernosal pressure in the conscious male rat (telemetry); type: in vivo
Protocol: In addition to treating women with FSD, bombesin antagonists will be useful in treating male erectile dysfunction (MED. Both the non-selective BB1/2 antagonists (Compound 1; 10 mg/kg sc) and the selective BB I receptor antagonist (Compound 3; 15 mg/kg sc) is pro-erectile in a conscious rat model of penile erection (FIGS. 24 and 25). Erectile responses were recorded by measuring intracavemosal pressure using surgically implanted telemetric device. The specific details the surgical procedures, data acquisition and analysis can be found in detail in Bernabe 1999.
Compound 1 and compound 3 were dissolved in 50% O-cyclodextrin in saline. They were administered at a dose of 15 mg/kg subcutaneously (sc). […] These increases equate to penile erection. Both Compounds 1 and 3 induced a number of erections in a similar manner to those observed with apomorphine or melanotan-II—both of which are clinically proven agents that are effective in the treatment of MED. Moreover the amplitude of the increases observed were similar to those observed with apomorphine or melanotan-II. The mechanism of action is thought to be similar to the effects on female genital flow ie CNS potentiation of the descending neuronal pathways that control penile erection.

[4] = target: T1, human NMB receptor (BB1) (Homo sapiens, UniProt P28336); experiment: BB1 binding assay ([125I][Tyr4]bombesin, CHO-K1 cell membranes)
T1 construct: expressed in transfected cells; host or cells: CHO-K1
Protocol: (§2) In the following experiments, measurement of BB1 and BB2 binding was as follows. CHO-K1 cells stably expressing cloned human NMB (for (BB1 assay) and GRP receptors (for BB2 assay) were routinely grown in Ham's F12 culture medium supplemented with 10% foetal calf serum and 2 mM glutamine. For binding experiments, cells were harvested by trypsinization, and stored frozen at −70° C. in Ham's F12 culture medium containing 5% DMSO until required. On the day of use, cells were thawed rapidly, diluted with an excess of culture medium, and centrifuged for 5 minutes at 2000 g. Cells were resuspended in 50 mM Tris-HCl assay buffer (pH 7.4 at 21° C., containing 0.02% BSA, 40 μg/mL bacitracin, 2 μg/mL chymostatin, 4 μg/mL leupeptin, and 2 μM phosphoramidon), counted, and polytronned (setting 5, 10 sec) before centrifuging for 10 minutes at 28,000 g. The final pellet was resuspended in assay buffer to a final cell concentration of 1.5×10^5/mL. For binding assays, 200 μL aliquots of membranes were incubated with [^125I][Tyr^4]bombesin (<0.1 nM) in the presence and absence of test compounds (final assay volume 250 μL) for 60 minutes and 90 minutes for NMB and GRP receptors, respectively. Nonspecific binding was defined by 1 μM bombesin. Assays were terminated by rapid filtration under vacuum onto Whatman GF/C filters presoaked in 0.2% PEI for >2 hours, and washed 50 mM Tris-HC (pH 6.9 at 21° C.; 6×1 mL). Radioactivity bound was determined using a gamma counter.
(§3) All competition data was analysed using nonlinear regression utilizing iterative curve-plotting procedures in Prism® (GraphPad Software Inc., San Diego, USA). IC50 values were corrected to Ki values using the Cheng-Prusoff equation (Cheng Y., PrusoffW. H., Biochem. Pharmacol. 22: 3099-3108, 1973).

[5] = target: T2, human GRP receptor (BB2) (Homo sapiens, UniProt P30550); experiment: BB2 binding assay ([125I][Tyr4]bombesin, CHO-K1 cell membranes)
T2 construct: expressed in transfected cells; host or cells: CHO-K1
Protocol: as §2, §3

T1 sequence (P28336 whole entry): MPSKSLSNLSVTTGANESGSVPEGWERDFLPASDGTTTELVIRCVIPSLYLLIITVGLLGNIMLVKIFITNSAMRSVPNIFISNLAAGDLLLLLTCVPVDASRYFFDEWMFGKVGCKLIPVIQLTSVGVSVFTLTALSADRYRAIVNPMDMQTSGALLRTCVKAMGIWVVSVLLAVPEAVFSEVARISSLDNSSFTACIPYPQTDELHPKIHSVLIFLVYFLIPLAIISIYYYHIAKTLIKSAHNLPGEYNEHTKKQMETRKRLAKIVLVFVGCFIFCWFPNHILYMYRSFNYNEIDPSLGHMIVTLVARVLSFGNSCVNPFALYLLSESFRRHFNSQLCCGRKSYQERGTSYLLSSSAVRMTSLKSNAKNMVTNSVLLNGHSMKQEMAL
T2 sequence (P30550 whole entry): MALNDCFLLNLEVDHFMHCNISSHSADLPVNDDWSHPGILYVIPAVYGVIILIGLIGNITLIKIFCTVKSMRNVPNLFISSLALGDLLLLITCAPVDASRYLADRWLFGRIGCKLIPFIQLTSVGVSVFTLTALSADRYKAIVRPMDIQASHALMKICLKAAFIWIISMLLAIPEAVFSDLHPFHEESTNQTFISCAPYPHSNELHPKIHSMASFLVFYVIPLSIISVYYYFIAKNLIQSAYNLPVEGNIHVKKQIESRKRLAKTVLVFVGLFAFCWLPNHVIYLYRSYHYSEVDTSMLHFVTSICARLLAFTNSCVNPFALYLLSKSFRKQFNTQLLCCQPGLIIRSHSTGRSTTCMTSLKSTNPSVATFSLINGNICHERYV

IC50 [4] [nM] | IC50 [5] [nM] | Structure (SMILES) | pelvic nerve-stimulated intracavernosal pressure (ICP), combination with PDE5 inhibitor [1] | pelvic-nerve stimulated (PNS) increases in genital (vaginal and clitoral) blood flow [2] | penile erection (erectile response) ([3]; Compound 1 10 mg/kg sc, Compound 3 15 mg/kg sc, conscious rat model) | intracavernosal pressure ([3]; one hour after 10 mg/kg sc Compound 1, 45 minutes after 15 mg/kg sc compound 3, conscious rat)
– | – | C[C@@](Cc1c[nH]c2ccccc12)(NC(=O)Nc1ccc([N+](=O)[O-])cc1)C(=O)NCC1(c2ccc(N)cc2)CCCCC1 [Compound 3, (2S)-N-{[1-(4-aminophenyl)cyclohexyl]methyl}-3-(1H-indol-3-yl)-2-methyl-2-{[(4-nitroanilino)carbonyl]amino}propanamide] | marked enhancement | potent enhancer | pro-erectile | significant increases in intracavernosal pressure
208 | 1960 | C[C@@](Cc1c[nH]c2ccccc12)(NS(=O)(=O)c1cccc([N+](=O)[O-])c1)C(=O)NCC1(c2ccccn2)CCCCC1 [Example 121] | – | – | – | –
440 | 2250 | C[C@@](Cc1c[nH]c2ccccc12)(NS(=O)(=O)c1cccc(C(F)(F)F)c1)C(=O)NCC1(c2ccccn2)CCCCC1 [Example 124] | – | – | – | –
284 | 1220 | C[C@@](Cc1c[nH]c2ccccc12)(NS(=O)(=O)c1ccc(F)c(Cl)c1)C(=O)NCC1(c2ccccn2)CCCCC1 [Example 156] | – | – | – | –
